Patent US11951094B2, “TLR2 modulator compounds, pharmaceutical compositions and uses thereof” (Axial Therapeutics, Inc., priority 2020, dated 2024)
pEC50: −log10 of the molar value.

Experiments:
TLR2 [1] = target: T1, TLR2 (Mus musculus, UniProt Q9QUN7); experiment: TLR2 functional assay, cytokine release from RAW 264.7 mouse macrophage cell line; assay type: cell-based; settings: average of all runs
T1 construct: endogenous in cells; host or cells: RAW 264.7
Protocol: Cells of the immune system respond to TLR agonists in part by secreting cytokines. Functional assays for TLR2 agonists measure cytokine release from purified immune cells or immortalized cell lines derived from immune cells. Cytokine release is measured by standard ELISA approaches or multiplexed analysis using the Meso Scale Discovery (MSD) platform.
Purified primary human peripheral blood mononuclear cells or RAW 264.7 mouse macrophage cell line cells are plated at approximately 40,000 cells per well. Cells are treated with agonist compounds and assays 6-24 hours post-treatment for cytokines released into the cell culture media.
Following assay measurements utilizing either HEK-Blue detection or cytokine release, all data is analyzed with the GraphPad Prism8 statistical package to determine EC50, binding and activity metrics for the TLR2 modulators.
Numerous cell lines derived from various cell types can respond to TLR2 agonists with stereotyped cytokine and chemokine secretion. In particular, cell lines derived from macrophages respond robustly to TLR2 agonists by secreting a wide array of cytokines, including (but not limited to) TNF-alpha, IL-1, IL-10 and IL-12. The human monocytic cell line THP-1, the mouse macrophage line RAW-264.7, and the rat macrophage line NR8383 were used. For each assay, the respective cell lines were plated into 96-well plates overnight and then treated the following day with various TLR2-engaging compounds at varying concentrations. The next day, supernatants were collected and assayed by multiplex immunodetection for cytokines released (MSD detection kits for respective species).
Data provided in Table 5 is generated using protocols described in Example 45 and 46.

TLR2 [2] = target: TLR2 (Homo sapiens, UniProt O60603); experiment: TLR2 agonist screening assay, HEK-Blue TLR2 reporter cell line (NF-kB-driven SEAP, absorbance at 600 nm); assay type: cell-based; set-up: host or cells: HEK-293 (HEK-Blue TLR2 reporter cell line); settings: HEK-Blue TLR2 reporter cells, agonist mode; average of all runs (Table 4)
Outline: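 EC50 values come from dilution series of agonist on TLR2-transfected HEK-293 reporter cells carrying an NF-kB-SEAP construct. Cells sat overnight with compound in substrate-containing Detection medium at 1% DMSO, and secreted phosphatase activity was quantified as absorbance at 600 nm.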

Chain of TLR2 (Homo sapiens, UniProt O60603) (O60603 21-784): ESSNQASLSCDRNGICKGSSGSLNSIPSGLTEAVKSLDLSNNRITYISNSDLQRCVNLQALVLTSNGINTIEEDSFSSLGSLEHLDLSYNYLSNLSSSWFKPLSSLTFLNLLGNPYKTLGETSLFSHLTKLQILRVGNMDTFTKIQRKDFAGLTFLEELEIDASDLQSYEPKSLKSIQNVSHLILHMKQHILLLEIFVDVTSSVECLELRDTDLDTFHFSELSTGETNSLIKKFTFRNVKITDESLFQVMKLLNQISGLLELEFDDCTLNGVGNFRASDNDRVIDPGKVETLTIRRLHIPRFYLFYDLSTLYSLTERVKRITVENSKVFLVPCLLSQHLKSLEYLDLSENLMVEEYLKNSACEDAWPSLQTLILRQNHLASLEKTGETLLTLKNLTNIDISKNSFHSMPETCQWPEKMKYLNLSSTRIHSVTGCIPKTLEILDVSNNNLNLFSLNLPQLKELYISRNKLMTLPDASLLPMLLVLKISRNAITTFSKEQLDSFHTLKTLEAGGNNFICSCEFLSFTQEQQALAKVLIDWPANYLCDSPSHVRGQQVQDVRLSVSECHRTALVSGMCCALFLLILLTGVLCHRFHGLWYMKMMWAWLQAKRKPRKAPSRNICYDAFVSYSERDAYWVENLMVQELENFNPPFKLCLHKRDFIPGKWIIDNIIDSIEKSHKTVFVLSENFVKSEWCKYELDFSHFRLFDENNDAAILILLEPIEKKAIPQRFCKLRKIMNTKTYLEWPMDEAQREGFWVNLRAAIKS
T1 sequence (Q9QUN7 25-784): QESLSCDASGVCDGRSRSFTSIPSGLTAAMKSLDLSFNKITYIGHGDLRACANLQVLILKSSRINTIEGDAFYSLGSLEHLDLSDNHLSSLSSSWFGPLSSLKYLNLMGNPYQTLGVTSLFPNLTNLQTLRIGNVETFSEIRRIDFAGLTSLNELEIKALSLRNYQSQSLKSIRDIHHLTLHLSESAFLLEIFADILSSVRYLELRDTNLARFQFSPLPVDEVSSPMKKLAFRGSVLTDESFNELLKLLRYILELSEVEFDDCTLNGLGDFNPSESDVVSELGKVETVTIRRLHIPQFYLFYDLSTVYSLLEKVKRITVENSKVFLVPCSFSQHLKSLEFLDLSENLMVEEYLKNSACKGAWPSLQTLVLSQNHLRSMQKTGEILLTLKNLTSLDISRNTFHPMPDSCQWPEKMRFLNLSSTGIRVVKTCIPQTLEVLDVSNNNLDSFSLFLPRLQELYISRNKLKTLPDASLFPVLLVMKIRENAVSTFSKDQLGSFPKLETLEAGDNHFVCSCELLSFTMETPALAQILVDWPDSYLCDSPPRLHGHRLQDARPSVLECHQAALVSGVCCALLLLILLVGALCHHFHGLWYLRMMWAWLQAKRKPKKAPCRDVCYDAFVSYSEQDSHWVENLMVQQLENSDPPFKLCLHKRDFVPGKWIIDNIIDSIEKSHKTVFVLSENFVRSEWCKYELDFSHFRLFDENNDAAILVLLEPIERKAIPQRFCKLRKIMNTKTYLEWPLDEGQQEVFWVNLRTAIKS

Molecule `CCCCCCCCCCCCCNC(=O)N[C@H]1CN(C(c2ccc(C(=O)N3C[C@@H](C(=O)N[C@H]4C[C@@H]4c4ccccc4)[C@H](C(=O)N[C@H]4C[C@@H]4c4ccccc4)C3)cc2)C(F)(F)F)C[C@@H]1OC` (stereo partly drawn) [Compound 189, (3S,4S)—N3,N4-bis((1S,2R)-2-phenylcyclopropyl)-1-(4-(2,2,2-trifluoro-1-((3S,4S)-3-methoxy-4-(3-tridecylureido)pyrrolidin-1-yl)ethyl)benzoyl)pyrrolidine-3,4-dicarboxamide] has a pEC50 (TLR2 [1]) of 6.00 to 6.45 and a pEC50 (TLR2 [2]) of 7.30 to 10.00.
`CCCCCCCCC(=O)N[C@@H](Cn1cc(-c2ccc(C(=O)N3C[C@@H](C(=O)N[C@H]4C[C@@H]4c4ccccc4)[C@H](C(=O)N[C@H]4C[C@@H]4c4ccccc4)C3)cc2)nn1)C(=O)NCCCCCC` [Compound 212, (3S,4S)-1-(4-(1-((S)-3-(hexylamino)-2-nonanamido-3-oxopropyl)-1H-1,2,3-triazol-4-yl)benzoyl)-N3,N4-bis ((1S,2R)-2-phenylcyclopropyl) pyrrolidine-3,4-dicarboxamide] showed a pEC50 (TLR2 [1]) of 6.00 to 6.45 and a pEC50 (TLR2 [2]) of 7.30 to 10.00.
`CO[C@H]1CN(C(=O)c2ccc(C(=O)N3C[C@@H](C(=O)N[C@H]4C[C@@H]4c4ccccc4)[C@H](C(=O)N[C@H]4C[C@@H]4c4ccccc4)C3)cc2)C[C@@H]1NC(=O)N[C@H]1C[C@@H]1c1ccccc1` [Compound 224, (3S,4S)-1-(4-((3S,4S)-3-methoxy-4-(3-((1S,2R)-2-phenylcyclopropyl)ureido)pyrrolidine-1-carbonyl)benzoyl)-N3,N4-bis((1S,2R)-2-phenylcyclopropyl)pyrrolidine-3,4-dicarboxamide] gave a pEC50 (TLR2 [1]) of less than 6.00 and a pEC50 (TLR2 [2]) of less than 6.00.
Molecule `CCCCCCCCCCCNC(=O)N[C@H]1CN(C(c2ccc(C(=O)N3C[C@@H](C(=O)N[C@H]4C[C@@H]4c4ccccc4)[C@H](C(=O)N[C@H]4C[C@@H]4c4ccccc4)C3)cc2)C(F)(F)F)C[C@@H]1OC` (single isomer, unassigned) [Compound 230, (3S,4S)—N3,N4-bis((1S,2R)-2-phenylcyclopropyl)-1-(4-((R*)-2,2,2-trifluoro-1-((3S,4S)-3-methoxy-4-(3-undecylureido)pyrrolidin-1-yl)ethyl)benzoyl)pyrrolidine-3,4-dicarboxamide] has a pEC50 (TLR2 [1]) of less than 6.00 and a pEC50 (TLR2 [2]) of 7.30 to 10.00.
`CCCCCCCCCC(=O)N[C@@H](Cn1cc(-c2ccc(C(=O)N3C[C@@H](C(=O)N[C@H]4C[C@@H]4c4ccccc4)[C@H](C(=O)N[C@H]4C[C@@H]4c4ccccc4)C3)cc2)nn1)C(=O)NCCCCCC` [Compound 213, (3S,4S)-1-(4-(1-((S)-2-decanamido-3-(hexylamino)-3-oxopropyl)-1H-1,2,3-triazol-4-yl)benzoyl)-N3,N4-bis((1S,2R)-2-phenylcyclopropyl)pyrrolidine-3,4-dicarboxamide] gave a pEC50 (TLR2 [1]) of 6.46 to 7.29 and a pEC50 (TLR2 [2]) of 7.30 to 10.00.
`CCCCCCNC(=O)[C@H](CNC(=O)c1ccc(C(=O)N2C[C@@H](C(=O)N[C@H]3C[C@@H]3c3ccccc3)[C@H](C(=O)N[C@H]3C[C@@H]3c3ccccc3)C2)cc1)NC(=O)Cc1ccc(F)cc1` [Compound 138, (3S,4S)-1-(4-(((S)-2-(2-(4-fluorophenyl)acetamido)-3-(hexylamino)-3-oxopropyl)carbamoyl)benzoyl)-N3,N4-bis((1S,2R)-2-phenylcyclopropyl) pyrrolidine-3,4-dicarboxamide] gave a pEC50 (TLR2 [1]) of less than 6.00 and a pEC50 (TLR2 [2]) of 7.30 to 10.00.
In the case of `CCCCCCNC(=O)[C@H](CNC(=O)c1ccc(C(=O)N2C[C@@H](C(=O)N[C@H]3C[C@@H]3c3ccccc3)[C@H](C(=O)N[C@H]3C[C@@H]3c3ccccc3)C2)cc1)NC(=O)N[C@H]1C[C@@H]1c1ccccc1` [Compound 222, (3S,4S)-1-(4-(((S)-3-(hexylamino)-3-oxo-2-(3-((1S,2R)-2-phenylcyclopropyl)ureido)propyl)carbamoyl)benzoyl)-N3,N4-bis((1S,2R)-2-phenylcyclopropyl)pyrrolidine-3,4-dicarboxamide], the pEC50 (TLR2 [1]) was 6.46 to 7.29 and the pEC50 (TLR2 [2]) was 7.30 to 10.00.
`CCCCCCCCCCCCCCC(=O)N[C@@H]1CN(C(=O)c2ccc(C(=O)N3C[C@@H](C(=O)N[C@H]4C[C@@H]4c4ccccc4)[C@H](C(=O)N[C@H]4C[C@@H]4c4ccccc4)C3)cc2)C[C@@H]1OC` [Compound 209, (3S,4S)-1-(4-((3S,4R)-3-methoxy-4-pentadecanamidopyrrolidine-1-carbonyl)benzoyl)-N3,N4-bis((1S,2R)-2-phenylcyclopropyl)pyrrolidine-3,4-dicarboxamide] gave a pEC50 (TLR2 [1]) of less than 6.00 and a pEC50 (TLR2 [2]) of 7.30 to 10.00.
For `CCCCCCCOC(=O)N[C@@H](CNC(=O)c1ccc(C(=O)N2C[C@@H](C(=O)N[C@H]3C[C@@H]3c3ccccc3)[C@H](C(=O)N[C@H]3C[C@@H]3c3ccccc3)C2)cc1)C(=O)NCCCCCC` [Compound 227, heptyl ((S)-3-(4-((3S,4S)-3,4-bis(((1S,2R)-2-phenylcyclopropyl)carbamoyl)pyrrolidine-1-carbonyl)benzamido)-1-(hexylamino)-1-oxopropan-2-yl)carbamate], the pEC50 (TLR2 [1]) was less than 6.00 and the pEC50 (TLR2 [2]) was 7.30 to 10.00.
Molecule `CCCCCCCNC(=O)N[C@@H](Cn1cc(-c2ccc(C(=O)N3C[C@@H](C(=O)N[C@H]4C[C@@H]4c4ccccc4)[C@H](C(=O)N[C@H]4C[C@@H]4c4ccccc4)C3)cc2)nn1)C(=O)NCCCCCC` [Compound 220, (3S,4S)-1-(4-(1-((S)-2-(3-heptylureido)-3-(hexylamino)-3-oxopropyl)-1H-1,2,3-triazol-4-yl)benzoyl)-N3,N4-bis((1S,2R)-2-phenylcyclopropyl)pyrrolidine-3,4-dicarboxamide] has a pEC50 (TLR2 [1]) of 7.30 to 10.00 and a pEC50 (TLR2 [2]) of 7.30 to 10.00.
For `CCCCCCCCCCCCCCC(=O)N[C@@H]1CCCN(C(=O)c2ccc(C(=O)N3C[C@@H](C(=O)N[C@H]4C[C@@H]4c4ccccc4)[C@H](C(=O)N[C@H]4C[C@@H]4c4ccccc4)C3)cc2)C1` [Compound 152, (3S,4S)-1-(4-((R)-3-pentadecanamidopiperidine-1-carbonyl)benzoyl)-N3,N4-bis((1S,2R)-2-phenylcyclopropyl)pyrrolidine-3,4-dicarboxamide], the pEC50 (TLR2 [1]) was less than 6.00 and the pEC50 (TLR2 [2]) was 7.30 to 10.00.
With `CCCCCCCCNC(=O)N[C@@H](CNC(=O)c1ccc(C(=O)N2C[C@@H](C(=O)N[C@H]3C[C@@H]3c3ccccc3)[C@H](C(=O)N[C@H]3C[C@@H]3c3ccccc3)C2)cc1)C(=O)NCCCCCC` [Compound 211, (3S,4S)-1-(4-(((S)-3-(hexylamino)-2-(3-octylureido)-3-oxopropyl)carbamoyl)benzoyl)-N3,N4-bis((1S,2R)-2-phenylcyclopropyl)pyrrolidine-3,4-dicarboxamide] the pEC50 (TLR2 [1]) was less than 6.00 and the pEC50 (TLR2 [2]) was 7.30 to 10.00.
`CCCCCCCCNC(=O)N[C@@H](Cn1cc(-c2ccc(C(=O)N3C[C@@H](C(=O)N[C@H]4C[C@@H]4c4ccccc4)[C@H](C(=O)N[C@H]4C[C@@H]4c4ccccc4)C3)cc2)nn1)C(=O)NCCCCCC` [Compound 221, (3S,4S)-1-(4-(1-((S)-3-(hexylamino)-2-(3-octylureido)-3-oxopropyl)-1H-1,2,3-triazol-4-yl)benzoyl)-N3,N4-bis((1S,2R)-2-phenylcyclopropyl)pyrrolidine-3,4-dicarboxamide] was tested, and the pEC50 (TLR2 [1]) was 7.30 to 10.00 and the pEC50 (TLR2 [2]) was 7.30 to 10.00.
Molecule `CCCCCCCCCCCCCNC(=O)N[C@@H](CNC(=O)c1ccc(C(=O)N2C[C@@H](C(=O)N[C@H]3C[C@@H]3c3ccccc3)[C@H](C(=O)N[C@H]3C[C@@H]3c3ccccc3)C2)cc1)COC` [Compound 198, (3S,4S)-1-(4-(((S)-3-methoxy-2-(3-tridecylureido)propyl)carbamoyl)benzoyl)-N3,N4-bis((1S,2R)-2-phenylcyclopropyl)pyrrolidine-3,4-dicarboxamide] has a pEC50 (TLR2 [1]) of less than 6.00 and a pEC50 (TLR2 [2]) of less than 6.00.
With `CCCCCCCCCCCOC(=O)N[C@H]1CN(C(=O)c2ccc(C(=O)N3C[C@@H](C(=O)N[C@H]4C[C@@H]4c4ccccc4)[C@H](C(=O)N[C@H]4C[C@@H]4c4ccccc4)C3)cc2)C[C@@H]1OC` [Compound 215, undecyl ((3S,4S)-1-(4-((3S,4S)-3,4-bis(((1S,2R)-2-phenylcyclopropyl)carbamoyl)pyrrolidine-1-carbonyl)benzoyl)-4-methoxypyrrolidin-3-yl)carbamate] the pEC50 (TLR2 [1]) was less than 6.00 and the pEC50 (TLR2 [2]) was 6.46 to 7.29.
`CCCCCCCCCCCCNC(=O)N[C@@H]1CCCN(C(=O)c2ccc(C(=O)N3C[C@@H](C(=O)N[C@H]4C[C@@H]4c4ccccc4)[C@H](C(=O)N[C@H]4C[C@@H]4c4ccccc4)C3)cc2)C1` [Compound 204, (3S,4S)-1-(4-((R)-3-(3-dodecylureido)piperidine-1-carbonyl)benzoyl)-N3,N4-bis((1S,2R)-2-phenylcyclopropyl)pyrrolidine-3,4-dicarboxamide] was tested, and the pEC50 (TLR2 [1]) was less than 6.00 and the pEC50 (TLR2 [2]) was 7.30 to 10.00.
Work on `CCCCCCCCCCCCCCNC(=O)N[C@@H]1CCCN(C(=O)c2ccc(C(=O)N3C[C@@H](C(=O)N[C@H]4C[C@@H]4c4ccccc4)[C@H](C(=O)N[C@H]4C[C@@H]4c4ccccc4)C3)cc2)C1` [Compound 206, (3S,4S)—N3,N4-bis((1S,2R)-2-phenylcyclopropyl)-1-(4-((R)-3-(3-tetradecylureido)piperidine-1-carbonyl)benzoyl)pyrrolidine-3,4-dicarboxamide] yielded a pEC50 (TLR2 [1]) of less than 6.00 and a pEC50 (TLR2 [2]) of 7.30 to 10.00.
